Reference: patent US20120270237A9, “METHODS FOR THE IDENTIFICATION OF KINASE INTERACTING MOLECULES AND FOR THE PURIFICATION OF KINASE PROTEINS” (Cellzone AG, priority 2009, published 2012)

Assays:
Assay in all cases: Kinobeads competition binding, L-363 cell lysate
Parameters in all cases: endogenous in cells
Conditions in all cases: 10 μM free compound, L-363 lysate
[1] = biological target: RSK3 (Homo sapiens, UniProt Q15349)
How it was run: (§1)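 MG132-pretreated (20 μM, 3 h) L-363 lysate; 10 μM cpd vs DMSO; immobilized-cpd bead capture; SDS-PAGE, tryptic digest, iTRAQ 114/117; LC-MS/MS reporter quant.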

[2] = biological target: T1, IRAK4 (Homo sapiens, UniProt Q9NWZ3)
T1 sequence (Q9NWZ3 1-460): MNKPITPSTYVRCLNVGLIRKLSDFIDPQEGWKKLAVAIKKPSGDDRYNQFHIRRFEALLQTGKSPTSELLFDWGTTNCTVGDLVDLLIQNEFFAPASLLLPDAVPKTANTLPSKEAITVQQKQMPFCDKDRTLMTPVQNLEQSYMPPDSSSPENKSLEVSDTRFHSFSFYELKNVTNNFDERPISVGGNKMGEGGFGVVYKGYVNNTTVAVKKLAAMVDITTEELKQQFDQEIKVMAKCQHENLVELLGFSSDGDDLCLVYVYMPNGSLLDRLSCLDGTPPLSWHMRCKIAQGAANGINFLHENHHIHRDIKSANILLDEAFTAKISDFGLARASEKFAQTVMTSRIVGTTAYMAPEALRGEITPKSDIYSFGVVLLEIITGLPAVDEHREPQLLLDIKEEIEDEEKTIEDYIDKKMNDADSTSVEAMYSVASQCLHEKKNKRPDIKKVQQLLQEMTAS
How it was run: as §1

[3] = biological target: T2, GCK (Homo sapiens, UniProt Q12851)
T2 sequence (Q12851 1-820): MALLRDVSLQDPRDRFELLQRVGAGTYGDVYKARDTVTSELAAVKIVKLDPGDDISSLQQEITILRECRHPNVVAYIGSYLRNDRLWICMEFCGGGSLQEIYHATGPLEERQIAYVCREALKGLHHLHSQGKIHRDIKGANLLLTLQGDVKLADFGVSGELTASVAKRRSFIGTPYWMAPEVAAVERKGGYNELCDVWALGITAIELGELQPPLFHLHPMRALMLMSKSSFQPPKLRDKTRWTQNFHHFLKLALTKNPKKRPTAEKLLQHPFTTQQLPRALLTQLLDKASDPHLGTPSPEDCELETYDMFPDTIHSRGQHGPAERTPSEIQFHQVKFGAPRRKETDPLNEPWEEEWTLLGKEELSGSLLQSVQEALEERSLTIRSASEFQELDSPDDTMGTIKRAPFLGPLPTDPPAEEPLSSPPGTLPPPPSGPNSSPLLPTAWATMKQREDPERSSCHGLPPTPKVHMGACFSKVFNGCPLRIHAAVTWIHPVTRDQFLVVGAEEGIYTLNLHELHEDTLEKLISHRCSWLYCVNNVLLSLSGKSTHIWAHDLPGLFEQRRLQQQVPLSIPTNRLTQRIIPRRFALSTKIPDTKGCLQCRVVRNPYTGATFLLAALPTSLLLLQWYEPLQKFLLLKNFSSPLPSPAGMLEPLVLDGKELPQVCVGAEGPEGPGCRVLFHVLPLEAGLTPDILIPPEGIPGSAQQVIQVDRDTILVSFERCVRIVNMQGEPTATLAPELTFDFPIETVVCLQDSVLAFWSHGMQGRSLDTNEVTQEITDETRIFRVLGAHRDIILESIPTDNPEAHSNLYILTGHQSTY
How it was run: as §1

[4] = biological target: T3, TAO3 (Homo sapiens, UniProt Q9H2K8)
T3 sequence (Q9H2K8 1-898): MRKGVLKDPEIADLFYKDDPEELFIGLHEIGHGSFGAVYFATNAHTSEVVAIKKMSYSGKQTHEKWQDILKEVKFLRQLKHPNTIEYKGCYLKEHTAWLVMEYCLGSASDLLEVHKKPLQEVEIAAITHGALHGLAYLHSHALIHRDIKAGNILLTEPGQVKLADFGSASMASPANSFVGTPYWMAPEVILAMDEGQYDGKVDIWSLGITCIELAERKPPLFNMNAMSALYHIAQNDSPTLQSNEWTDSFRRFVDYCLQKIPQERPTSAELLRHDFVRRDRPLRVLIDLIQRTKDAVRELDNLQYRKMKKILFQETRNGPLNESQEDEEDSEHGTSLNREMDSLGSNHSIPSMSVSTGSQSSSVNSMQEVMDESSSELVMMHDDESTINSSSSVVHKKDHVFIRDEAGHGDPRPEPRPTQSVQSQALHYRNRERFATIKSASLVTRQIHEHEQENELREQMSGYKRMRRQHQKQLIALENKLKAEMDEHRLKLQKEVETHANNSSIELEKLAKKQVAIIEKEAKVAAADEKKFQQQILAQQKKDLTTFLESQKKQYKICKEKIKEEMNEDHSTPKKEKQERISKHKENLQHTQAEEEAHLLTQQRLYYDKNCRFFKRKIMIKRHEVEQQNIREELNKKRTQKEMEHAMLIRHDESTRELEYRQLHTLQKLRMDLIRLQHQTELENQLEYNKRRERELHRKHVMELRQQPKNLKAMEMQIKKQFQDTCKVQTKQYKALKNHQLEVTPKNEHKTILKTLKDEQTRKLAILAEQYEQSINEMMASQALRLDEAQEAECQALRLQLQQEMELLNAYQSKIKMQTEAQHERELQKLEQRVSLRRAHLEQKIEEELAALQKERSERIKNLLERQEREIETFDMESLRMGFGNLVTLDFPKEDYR
How it was run: as §1

[5] = biological target: AMPKa1 (Homo sapiens, UniProt Q13131)
Chain of AMPKa1 (Q13131 whole entry): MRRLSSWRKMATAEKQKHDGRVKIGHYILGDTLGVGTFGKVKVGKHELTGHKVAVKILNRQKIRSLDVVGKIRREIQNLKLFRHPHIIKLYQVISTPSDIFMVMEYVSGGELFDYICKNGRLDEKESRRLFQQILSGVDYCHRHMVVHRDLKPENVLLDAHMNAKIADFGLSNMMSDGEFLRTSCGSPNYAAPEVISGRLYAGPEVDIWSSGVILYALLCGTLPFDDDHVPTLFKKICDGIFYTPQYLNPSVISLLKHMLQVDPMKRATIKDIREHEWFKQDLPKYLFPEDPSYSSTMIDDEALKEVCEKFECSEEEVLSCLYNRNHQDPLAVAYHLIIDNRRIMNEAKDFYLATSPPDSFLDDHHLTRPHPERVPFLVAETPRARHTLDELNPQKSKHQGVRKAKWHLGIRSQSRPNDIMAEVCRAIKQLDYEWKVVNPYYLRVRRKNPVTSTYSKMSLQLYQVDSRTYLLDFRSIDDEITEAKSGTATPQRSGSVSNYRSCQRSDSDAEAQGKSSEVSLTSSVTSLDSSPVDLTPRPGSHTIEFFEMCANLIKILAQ
Chain of AMPKa1 (Q9Y478 2-270 partner limits assumed): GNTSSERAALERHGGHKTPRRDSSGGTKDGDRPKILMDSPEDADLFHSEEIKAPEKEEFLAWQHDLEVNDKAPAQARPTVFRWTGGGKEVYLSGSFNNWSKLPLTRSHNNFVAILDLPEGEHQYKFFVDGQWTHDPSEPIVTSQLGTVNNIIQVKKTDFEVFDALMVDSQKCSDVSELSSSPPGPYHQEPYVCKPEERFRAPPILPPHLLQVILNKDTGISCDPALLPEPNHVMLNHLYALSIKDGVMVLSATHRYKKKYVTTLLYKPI
Chain of AMPKa1 (P54619 whole entry partner): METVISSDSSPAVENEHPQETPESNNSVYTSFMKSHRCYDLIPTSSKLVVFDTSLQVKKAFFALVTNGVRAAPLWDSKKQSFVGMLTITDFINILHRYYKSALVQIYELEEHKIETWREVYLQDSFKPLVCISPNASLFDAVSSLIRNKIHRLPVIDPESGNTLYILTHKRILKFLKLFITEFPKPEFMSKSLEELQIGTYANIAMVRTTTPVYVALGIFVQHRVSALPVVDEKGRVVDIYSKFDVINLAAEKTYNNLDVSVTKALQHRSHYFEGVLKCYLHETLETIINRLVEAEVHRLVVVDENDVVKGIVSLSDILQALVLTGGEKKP
How it was run: as §1

[6] = biological target: Wee1 (Homo sapiens, UniProt P30291)
Chain of Wee1 (P30291 whole entry): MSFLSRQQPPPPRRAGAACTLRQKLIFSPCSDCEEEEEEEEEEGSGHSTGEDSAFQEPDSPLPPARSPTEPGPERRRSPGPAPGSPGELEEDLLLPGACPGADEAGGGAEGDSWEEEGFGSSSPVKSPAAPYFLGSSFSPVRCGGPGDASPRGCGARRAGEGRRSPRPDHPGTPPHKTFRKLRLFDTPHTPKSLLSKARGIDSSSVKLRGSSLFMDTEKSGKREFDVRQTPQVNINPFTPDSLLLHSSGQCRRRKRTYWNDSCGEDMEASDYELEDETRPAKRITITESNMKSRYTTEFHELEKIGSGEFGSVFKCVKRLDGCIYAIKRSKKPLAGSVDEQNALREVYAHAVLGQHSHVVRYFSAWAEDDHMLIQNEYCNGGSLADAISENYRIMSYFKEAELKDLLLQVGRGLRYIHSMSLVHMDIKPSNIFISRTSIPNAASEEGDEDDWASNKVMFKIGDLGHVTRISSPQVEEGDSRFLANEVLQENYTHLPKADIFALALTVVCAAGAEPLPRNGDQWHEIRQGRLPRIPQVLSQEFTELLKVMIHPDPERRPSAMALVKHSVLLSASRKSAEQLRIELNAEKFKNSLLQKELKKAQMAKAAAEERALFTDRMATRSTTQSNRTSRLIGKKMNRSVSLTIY
How it was run: as §1

Chain of RSK3 (Q15349 whole entry): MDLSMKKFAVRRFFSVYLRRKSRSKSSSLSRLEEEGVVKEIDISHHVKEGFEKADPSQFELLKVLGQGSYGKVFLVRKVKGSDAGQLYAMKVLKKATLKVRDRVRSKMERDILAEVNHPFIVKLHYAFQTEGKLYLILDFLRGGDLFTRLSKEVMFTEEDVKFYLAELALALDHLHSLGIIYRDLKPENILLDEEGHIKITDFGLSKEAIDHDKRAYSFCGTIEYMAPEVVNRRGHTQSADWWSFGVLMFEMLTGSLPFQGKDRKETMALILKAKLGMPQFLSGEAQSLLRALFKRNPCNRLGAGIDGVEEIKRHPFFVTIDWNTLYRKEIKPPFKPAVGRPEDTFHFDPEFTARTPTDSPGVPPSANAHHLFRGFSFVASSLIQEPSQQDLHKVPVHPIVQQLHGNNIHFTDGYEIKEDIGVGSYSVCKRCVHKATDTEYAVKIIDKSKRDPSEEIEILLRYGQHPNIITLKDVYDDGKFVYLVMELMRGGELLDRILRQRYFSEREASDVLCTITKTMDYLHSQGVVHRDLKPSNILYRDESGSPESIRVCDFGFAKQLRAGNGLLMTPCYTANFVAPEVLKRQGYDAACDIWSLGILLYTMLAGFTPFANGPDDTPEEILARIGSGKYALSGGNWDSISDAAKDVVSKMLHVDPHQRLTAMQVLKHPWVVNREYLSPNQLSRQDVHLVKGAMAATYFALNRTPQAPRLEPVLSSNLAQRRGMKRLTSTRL

- inhibition at 10 µM [1]: 96.9%
- Competition % [2]: 97.4%
- inhibition at 10 µM [3]: 95.1%
- inhibition at 10 µM [4]: 94.7%
- inhibition at 10 µM [5]: 97.7%
- inhibition at 10 µM [6]: 96.4%
Structure (SMILES): CS(=O)(=O)Nc1ccccc1Nc1nc(Nc2cccc(OCCN)c2)ncc1Cl [CZC31326, N-(2-(2-(3-(2-aminoethoxy)phenylamino)-5-chloropyrimidin-4-ylamino)phenyl)methanesulfonamide]
